Measurements taken from patent US20240391921A1, “CRYSTAL FORM OF IMIDAZOLINONE DERIVATIVE” (CHENGDU BAIYU PHARMACEUTICAL CO., LTD., priority 2021, published 2024).

Tests used:
[1] = Pharmacokinetic assay in ICR mice; type: in vivo; details: male ICR mice, iv 1 mg/kg and po 10 mg/kg, plasma by LC/MS/MS
Description: ICR mice (purchased from Beijing Viton Lihua Laboratory Animal Technology Co.)
2.2 Experimental procedure • (1) Healthy male ICR mice (18-22 g) were prepared, with 18 mice for each compound which were divided into 2 groups (iv and po groups) of 9 mice each, and 3 mice were selected for blood collection at each time point. • (2) After fasting (free water intake) overnight, the compound of the invention was solubilized (or formed into a suspension) with 5% DMSO, 95% 30% HP-β-CD (v: v) as solvent. The compound was administered via the tail vein (iv, 1 mg/kg) and by gavage (po, 10 mg/kg), respectively. • (3) In the iv group, 0.1 mL of blood was collected from the submandibular vein at 5 min, 15 min, 0.5 h, 1 h, 2 h, 4 h, 8 h, 12 h, and 24 h, respectively, and the blood was anticoagulated with EDTA-K2, and then centrifuged at 4° C. for 5 min to separate the plasma, which was stored at-20° C. before measurement. • (4) In the po group, 0.1 mL of blood was collected from the submandibular vein before and after administration at 15 min, 0.5h, 1h, 2h, 4h, 6h, 8h, 12h and 24h respectively, and processed in the same manner as in the iv group. • (5) The concentration of the compound of the present invention in plasma was determined by a LC/MS/MS method. • (6) The results were calculated and fitted using Analyst 1.6 from AB.

[2] = Dynamic vapor sorption (DVS) test; type: physicochemical
Description: The crystalline form I of Compound A prepared in Example 3 was subjected to dynamic vapor sorption test, and the dynamic vapor sorption (DVS) curves were acquired on DVS Intrinsic of SMS (Surface Measurement Systems). The relative humidity at 25° C. was corrected with the deliquescence points of LiCl, Mg (NO3)2, and KCl.

[3] = Solid-state stability (XRPD for physical, HPLC purity for chemical stability); type: physicochemical

## CCn1c(=O)n(C2CCOCC2)c2nc(Nc3cc(F)c(C(N)=O)cc3C)ncc21 [Compound A, 4-((7-ethyl-8-oxo-9-(tetrahydro-2H-pyran-4-yl)-8,9-dihydro-7H-purin-2-yl)amino)-2-fluoro-5-methylbenzamide]
[1]
  pharmacokinetic properties: good pharmacokinetic properties

## CCn1c(=O)n(C2CCOCC2)c2nc(Nc3cc(F)c(C(N)=O)cc3C)ncc21 [crystalline form I, 4-((7-ethyl-8-oxo-9-(tetrahydro-2H-pyran-4-yl)-8,9-dihydro-7H-purin-2-yl)amino)-2-fluoro-5-methylbenzamide]
[2]; 0% RH-95% RH-0% RH at 25° C.
  change in sample weight (DVS): less than 0.2%
  hygroscopicity (DVS): free or almost free of hygroscopicity
[2]; XRPD before and after DVS
  transformation of crystalline form before and after DVS (XRPD comparison): no transformation of crystalline form occurred
[3]; 25° C./60% RH/open, 1 week
  solid-state stability: crystalline transformation (XRPD) and purity (HPLC): no crystalline transformation or decrease in purity was observed
[3]; 40° C./75% RH/open, 1 week
  solid-state stability: crystalline transformation (XRPD) and purity (HPLC): no crystalline transformation or decrease in purity was observed
[3]; 60° C./close, 1 day
  solid-state stability: crystalline transformation (XRPD) and purity (HPLC): no crystalline transformation or decrease in purity was observed
[3]; 80° C./close, 1 day
  solid-state stability: crystalline transformation (XRPD) and purity (HPLC): no crystalline transformation or decrease in purity was observed
